From patent US10597388B2, “Pyridazinone herbicides” (FMC CORPORATION, priority 2014, dated 2020)

Key:
Assay type in all cases: in vivo
[1] = tested on: blackgrass (Alopecurus myosuroides); experiment: Test A greenhouse herbicide test, postemergence; settings: for Plant response rating, Blackgrass: 125 g ai/ha; for Blackgrass plant response rating: 500 g ai/ha, 0 to 100 scale, 0 is no effect, 100 is complete control
Description: (§1) At the same time, plants selected from these crop and weed species and also blackgrass (Alopecurus myosuroides), and galium (catchweed bedstraw, Galium aparine) were planted in pots containing the same blend of loam soil and sand and treated with postemergence applications of test chemicals formulated in the same manner. Plants ranged in height from 2 to 10 cm and were in the one- to two-leaf stage for the postemergence treatment. Treated plants and untreated controls were maintained in a greenhouse for approximately 10 d, after which time all treated plants were compared to untreated controls and visually evaluated for injury. Plant response ratings, summarized in Table A, are based on a 0 to 100 scale where 0 is no effect and 100 is complete control. A dash (-) response means no test result.

[2] = tested on: galium (catchweed bedstraw, Galium aparine); experiment: Test A greenhouse herbicide test, postemergence; settings: for Plant response rating, Galium: 125 g ai/ha; for Galium plant response rating: 500 g ai/ha, 0 to 100 scale, 0 is no effect, 100 is complete control
Description: as §1

[3] = tested on: barnyardgrass (Echinochloa crus-galli); experiment: Test A greenhouse herbicide test, pre- and postemergence
Description: (§2) Seeds of plant species selected from barnyardgrass (Echinochloa crus-galli), kochia (Kochia scoparia), ragweed (common ragweed, Ambrosia elatior), ryegrass, Italian (Italian ryegrass, Lolium multiflorum), crabgrass, large (large crabgrass, Digitaria sanguinalis), foxtail, giant (giant foxtail, Setaria faberii), momingglory (Ipomoea spp.), pigweed (Amaranthus retroflexus), velvetleaf (Abutilon theophrasti), wheat (Triticum aestivum), and corn (Zea mays) were planted into a blend of loam soil and sand and treated preemergence with a directed soil spray using test chemicals formulated in a non-phytotoxic solvent mixture which included a surfactant.
as §1

corn (Zea mays) = experiment: as above; settings: Postemergence; for Plant response rating, Corn: 125 g ai/ha; for Corn plant response rating: 500 g ai/ha, 0 to 100 scale, 0 is no effect, 100 is complete control
Description: as §2, §1

kochia (Kochia scoparia) = experiment: as above
Description: as §2, §1

[4] = tested on: ryegrass, Italian (Italian ryegrass, Lolium multiflorum); experiment: as above
Description: as §2, §1

[5] = tested on: foxtail, giant (giant foxtail, Setaria faberii); experiment: as above
Description: as §2, §1

[6] = tested on: pigweed (Amaranthus retroflexus); experiment: as above
Description: as §2, §1

[7] = tested on: ragweed (common ragweed, Ambrosia elatior); experiment: as above
Description: as §2, §1

[8] = tested on: wheat (Triticum aestivum); experiment: as above; settings: Postemergence; for Plant response rating, Wheat: 125 g ai/ha, 0 to 100 scale where 0 is no effect and 100 is complete control; for Wheat plant response rating: 500 g ai/ha, 0 to 100 scale, 0 is no effect, 100 is complete control
Description: as §2, §1

[9] = visual rating after approx. 10 d, 0 to 100 scale (0 no effect, 100 complete control)
[10] = Postemergence, 125 g ai/ha, visual rating after approx. 10 d, 0 to 100 scale (0 no effect, 100 complete control)
[11] = Postemergence, 500 g ai/ha, 0 to 100 scale, 0 is no effect, 100 is complete control
[12] = Preemergence, 125 g ai/ha, 0 to 100 scale where 0 is no effect and 100 is complete control
[13] = Preemergence, 500 g ai/ha, 0 to 100 scale, 0 no effect, 100 complete control
[14] = Postemergence, 125 g ai/ha, 0 to 100 scale where 0 is no effect and 100 is complete control
[15] = 0 to 100 scale where 0 is no effect and 100 is complete control

Structure (SMILES)	Blackgrass plant response rating [1]	Galium plant response rating [2]	Barnyardgrass plant response rating [3, 11]	Barnyardgrass plant response rating [3, 12]	Plant response rating, Barnyardgrass [3, 13]	Corn plant response rating (corn (Zea mays))	Kochia plant response rating (kochia (Kochia scoparia); [11])	Kochia plant response rating (kochia (Kochia scoparia); [12])	Plant response rating, Kochia (kochia (Kochia scoparia); [13])	Plant response rating, Ryegrass, Italian [4, 14]	Ryegrass, Italian plant response rating [4, 11]	Ryegrass, Italian plant response rating [4, 12]	Plant response rating, Ryegrass, Italian [4, 13]	Foxtail, Giant plant response rating [5, 11]	Foxtail, Giant plant response rating [5, 12]	Plant response rating, Foxtail, Giant [5, 13]	Pigweed plant response rating [6, 11]	Pigweed plant response rating [6, 12]	Plant response rating, Pigweed [6, 13]	Ragweed plant response rating [7, 11]	also measured
COc1nn(C)c(=O)c(-c2c(C)ccc3ccc(C)cc23)c1O [Compound 30]	60	90	30	0	10	0	80	0	40	70	60	30	50	60	0	60	90	80	90	70	Plant response rating, Blackgrass [1, 9]: 20; Plant response rating, Galium [2, 9]: 70; Plant response rating, Barnyardgrass [3, 10]: 0; Plant response rating, Corn (corn (Zea mays); [9]): 0; Plant response rating, Kochia (kochia (Kochia scoparia); [10]): 60; Plant response rating, Foxtail, Giant [5, 10]: 0; Plant response rating, Pigweed [6, 10]: 90; Plant response rating, Ragweed [7, 10]: 40; Ragweed plant response rating [7, 12]: 0; Plant response rating, Ragweed [7, 13]: 70; Plant response rating, Wheat [8]: 10; Wheat plant response rating [8]: 10
CCc1ccc2ccccc2c1-c1c(OC(=O)C2CC2)c(C)nn(C)c1=O [Compound 38]	60	100	40	0	10	10	80	40	40	0	50	40	70	50	0	40	50	0	80	70	Plant response rating, Blackgrass [1, 9]: 50; Plant response rating, Galium [2, 9]: 80; Plant response rating, Barnyardgrass [3, 10]: 0; Plant response rating, Corn (corn (Zea mays); [9]): 0; Plant response rating, Kochia (kochia (Kochia scoparia); [10]): 30; Plant response rating, Foxtail, Giant [5, 10]: 0; Plant response rating, Pigweed [6, 10]: 50; Plant response rating, Ragweed [7, 10]: 40; Ragweed plant response rating [7, 12]: 0; Plant response rating, Ragweed [7, 13]: 70; Plant response rating, Wheat [8]: 10; Wheat plant response rating [8]: 20
Cc1ccc2oc(C)c(-c3c(O)c(-c4ccccc4)nn(C)c3=O)c2c1 [Compound 61]	0	0	0	0	0	0	0	0	0	0	0	0	0	0	0	0	0	0	0	0	Plant response rating, Blackgrass [1, 15]: 0; Plant response rating, Galium [2, 15]: 0; Plant response rating, Barnyardgrass [3, 14]: 0; Plant response rating, Corn (corn (Zea mays); [15]): 0; Plant response rating, Kochia (kochia (Kochia scoparia); [14]): 0; Plant response rating, Foxtail, Giant [5, 14]: 0; Plant response rating, Pigweed [6, 14]: 0; Plant response rating, Ragweed [7, 14]: 0; Ragweed plant response rating [7, 12]: 0; Plant response rating, Ragweed [7, 13]: 0; Plant response rating, Wheat [8]: 0; Wheat plant response rating [8]: 0
CCc1nn(CC)c(=O)c(-c2c(C)oc3ccc(C)cc23)c1O [Compound 64]	0	0	0	0	0	0	0	0	0	0	0	0	0	0	0	0	0	0	0	0	Plant response rating, Blackgrass [1, 15]: 0; Plant response rating, Galium [2, 15]: 0; Plant response rating, Barnyardgrass [3, 14]: 0; Plant response rating, Corn (corn (Zea mays); [15]): 0; Plant response rating, Kochia (kochia (Kochia scoparia); [14]): 0; Plant response rating, Foxtail, Giant [5, 14]: 0; Plant response rating, Pigweed [6, 14]: 0; Plant response rating, Ragweed [7, 14]: 0; Ragweed plant response rating [7, 12]: 0; Plant response rating, Ragweed [7, 13]: 0; Plant response rating, Wheat [8]: 0; Wheat plant response rating [8]: 0
